Source: PubChem BioAssay (NCI)
Where “and” joins values, the source holds several entries; their conditions need not be identical. Equal entries are not always repeated.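 Assay format: 96-well plates, 48-hour exposure. GI50 is the concentration that inhibits growth by half. TGI marks complete inhibition of growth.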

Tests used:
Assay in all cases: NCI-60 cell line screen, 48 h
[1] = tested on: OVCAR-4 ovarian
[2] = tested on: SK-OV-3 ovarian
[3] = tested on: OVCAR-3 ovarian
[4] = tested on: SN12C renal
[5] = tested on: PC-3 prostate
[6] = tested on: CCRF-CEM leukemia
[7] = tested on: NCI-H226 lung
[8] = tested on: HL-60(TB) leukemia
[9] = tested on: SNB-75 CNS
[10] = tested on: MOLT-4 leukemia

Structure (SMILES) | TGI [1] [µM] | TGI [2] [µM] | TGI [3] [µM] | TGI [4] [µM] | TGI [5] [µM] | TGI [6] [µM] | TGI [7] [µM] | GI50 [8] [µM] | TGI [8] [µM] | GI50 [2] [µM] | GI50 [3] | GI50 [9] [µM] | TGI [9] [µM] | GI50 [10] [µM] | TGI [10] [µM] | GI50 [6] [µM] | GI50 [7] [µM] | GI50 [1] [µM] | GI50 [5] | GI50 [4] [µM]
CC(=O)c1c(C)n(C)c2c1nnc1ccccc12 | > 100 | > 100 | > 100 | > 100 | > 100 | > 100 | > 100 |  |  |  |  |  |  |  |  |  |  |  |  | 
COc1cnc2c(c1)C(=O)c1c-2n(CCCN2CCC(O)CC2)c(=O)c2cc(F)ccc12 |  | 0.783 | 1.18 |  |  | 1.95 | 0.307 | 0.293 | 0.96 | 0.22 | 0.254 µM | 0.252 | 2.59 | 0.0445 | 0.337 | 0.0797 | 0.135 |  |  | 
O=C(CSC(c1ccccc1)c1ccccc1)N/N=C/c1cccc(Cl)c1 | 30.8 |  | 38.9 |  | 35.7 | 31 | 31.3 | 13.8 | 33.9 |  | 21.4 µM |  |  | 19.1 | 43.2 | 0.755 | 15.6 | 15 | 19.4 µM | 
C1C[S][Ge]2([S]CCO1)[S]CCOCC[S]2 | > 100 | > 100 |  | > 100 |  | > 100 | > 100 | > 100 | > 100 | > 100 |  | 2.51 | 48.4 | > 100 | > 100 | > 100 | > 100 | > 100 |  | > 100
COc1ccc(C(=O)C(C(=O)C(=O)Nc2ccc(Cl)c(Cl)c2)c2ccc(OC)cc2)cc1 (centres undefined) | > 100 |  | > 100 | > 100 |  |  | > 100 |  | > 100 |  |  |  | > 100 |  | > 100 |  |  |  |  | 
C=CC(C=O)C1(O)CCOC(=O)/C1=C\N (centres undefined) |  | > 100 | > 100 | > 100 | > 100 | > 100 | > 100 |  |  | > 100 | > 100 µM |  |  | > 100 | > 100 | > 100 | > 100 |  | > 100 µM | > 100
CC(C)(C)CC(C)(C)c1cc2c(O)c(c1)Cc1cc(C(C)(C)CC(C)(C)C)cc(c1O)Cc1cc(C(C)(C)CC(C)(C)C)cc(c1O)Cc1cc(C(C)(C)CC(C)(C)C)cc(c1O)Cc1cc(C(C)(C)CC(C)(C)C)cc(c1O)Cc1cc(C(C)(C)CC(C)(C)C)cc(c1O)C2 | > 100 |  | > 100 | > 100 |  | > 100 |  |  | > 100 |  |  |  | > 100 |  | > 100 |  |  |  |  | 
CN(C)CCNC(=O)Cn1cc([N+](=O)[O-])c(=O)c2ccccc21 |  | > 100 | > 100 | > 100 | > 100 | > 100 | > 100 |  | > 100 |  |  |  | > 100 |  | > 100 |  |  |  |  | 
COc1ccc(C2=NN(C(=O)c3cc(OC)c(OC)c(OC)c3)C(c3ccc(Cl)cc3)C2)cc1OC (centres undefined) | 49.6 | 27.4 | 1.71 | 56 | > 100 | > 100 | > 57.7 |  |  | 2.89 | 0.464 µM | 0.746 | 15.2 | 2.73 | > 100 | 2.34 |  | 5.22 | 1.07 µM | 4.89
O=c1cccccc1NCCCCCCNc1cccccc1=O | > 100 | > 100 | > 100 | > 100 |  | > 100 | > 100 |  | > 100 |  |  |  | > 100 |  | > 100 |  |  |  |  | 
O=C1N(c2ccccc2)C(=O)C2(SC=NN2Cc2ccccc2)N1c1ccccc1 (centres undefined) | > 100 | > 100 | > 100 | > 100 |  | > 100 | > 100 |  | > 100 |  |  |  | > 100 |  | > 100 |  |  |  |  | 
CCOc1cc2c(cc1O)/C(=N\O)C[C@@H]1[C@@H]2CC[C@]2(C)[C@@H](O)CC[C@@H]12 | > 100 |  |  | > 100 | > 100 |  | > 100 |  | < 0.0258 |  | 0.0114 µM and 0.0299 µM | 0.00232 | 0.0166 |  | 0.977 |  | 0.258 | 8.67 | 0.767 µM and 0.491 µM | 0.059
Cc1cccc(C(=O)/C=C/SC(=NC#N)SCc2ccccc2)c1 | > 100 | > 100 | 89.7 | 41.3 | 50.8 | > 100 |  |  |  | > 100 | 16.7 µM |  |  | 6.72 | > 100 | 3.23 |  | > 100 | 16.4 µM | 20.4
CC(=O)c1cc2c(cc1Nc1c3ccccc3nc3occ(Cl)c13)OCO2 | > 100 | > 100 | 0.178 | > 100 | 3.71 | 0.291 |  | 0.0647 | 0.57 | 0.781 | 0.0725 µM |  |  | 0.198 | > 100 | 0.0468 | 3.42 | 82.9 | 0.0856 µM | 0.603
CCN1C(NN)=NS(=O)(=O)c2ccccc21 | > 100 | > 100 | > 100 | > 100 | > 100 | > 100 | > 100 |  | > 100 |  |  |  |  |  | > 100 |  |  |  |  | 
CCOC(=O)C1=C(O)CSC1=Nc1ccccc1 | > 100 | > 100 | > 100 | > 100 |  |  | > 100 |  | > 100 |  |  |  | > 100 |  | > 100 |  |  |  |  | 
CC/C(=C(/CC)c1ccc([O-])cc1)c1ccc([O-])cc1.CC/C(=C(\CC)c1ccc([O-])cc1)c1ccc([O-])cc1.O=C([CH-]C(=O)c1ccccc1)c1ccccc1.O=C([CH-]C(=O)c1ccccc1)c1ccccc1.O=C([CH-]C(=O)c1ccccc1)c1ccccc1.O=C([CH-]C(=O)c1ccccc1)c1ccccc1.[Ti+4].[Ti+4] | > 100 | 74.4 | > 100 | > 100 |  | 93.8 | 61.2 | > 100 | > 100 | 30.8 | 24.9 µM |  |  | 27.7 | > 100 | 21 | 28.1 | 42.9 |  | 47.1
Cc1ccc(Nc2n[nH]c(=S)s2)cc1 |  | > 100 | > 100 | > 100 | > 100 | > 100 | > 100 |  | > 100 |  |  |  | > 100 |  | > 100 |  |  |  |  | 
